Our source for the Ki and IC50 values is patent publication US6191282A, “Substituted 5-membered ring heterocycles comprising a bicyclic or tricyclic group their preparation and their use” (Hoechst Marion Roussel, priority 1993, dated 2001).

Where a name gives a salt, the structure may show the parent alone. Read-outs that look alike come from different tables or passages of the source.

In assay [1] the target is T1, isolated fibrinogen receptor (glycoprotein IIb/IIIa) (Homo sapiens, UniProt P05106+P08514).
T1 construct: isolated from human thrombocytes and immobilized in microtitre plates; from tissue; host or cells: human thrombocytes (platelets), receptor isolated
T1 sequence (P08514 32-887 limits assumed): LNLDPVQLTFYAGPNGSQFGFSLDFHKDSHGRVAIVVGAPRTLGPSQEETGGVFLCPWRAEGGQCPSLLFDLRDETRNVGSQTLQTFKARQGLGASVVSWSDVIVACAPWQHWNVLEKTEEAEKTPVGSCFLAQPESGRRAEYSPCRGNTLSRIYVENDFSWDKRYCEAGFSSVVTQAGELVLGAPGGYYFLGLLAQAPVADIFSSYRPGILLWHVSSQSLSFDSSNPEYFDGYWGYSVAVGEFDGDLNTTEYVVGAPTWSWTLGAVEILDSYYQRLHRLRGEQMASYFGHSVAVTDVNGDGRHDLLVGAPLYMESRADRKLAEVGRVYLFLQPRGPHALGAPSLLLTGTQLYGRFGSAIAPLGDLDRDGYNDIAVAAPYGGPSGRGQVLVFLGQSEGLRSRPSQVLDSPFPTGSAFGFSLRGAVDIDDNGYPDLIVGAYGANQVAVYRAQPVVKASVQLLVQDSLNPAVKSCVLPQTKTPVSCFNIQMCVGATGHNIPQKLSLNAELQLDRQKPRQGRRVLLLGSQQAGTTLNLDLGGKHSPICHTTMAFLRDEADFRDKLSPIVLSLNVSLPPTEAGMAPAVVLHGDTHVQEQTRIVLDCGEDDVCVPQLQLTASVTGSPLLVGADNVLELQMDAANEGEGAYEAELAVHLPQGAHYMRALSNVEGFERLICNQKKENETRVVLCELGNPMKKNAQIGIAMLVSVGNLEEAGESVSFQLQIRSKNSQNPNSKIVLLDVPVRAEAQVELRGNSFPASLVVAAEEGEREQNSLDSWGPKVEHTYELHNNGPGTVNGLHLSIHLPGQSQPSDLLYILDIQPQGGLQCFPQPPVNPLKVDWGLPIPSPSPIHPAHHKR
T1 sequence (P08514 891-1039 partner limits assumed): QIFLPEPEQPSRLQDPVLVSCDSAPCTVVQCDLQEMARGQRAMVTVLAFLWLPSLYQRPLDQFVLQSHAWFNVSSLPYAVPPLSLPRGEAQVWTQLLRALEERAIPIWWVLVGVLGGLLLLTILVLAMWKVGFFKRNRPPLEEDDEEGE
T1 sequence (P05106 27-788): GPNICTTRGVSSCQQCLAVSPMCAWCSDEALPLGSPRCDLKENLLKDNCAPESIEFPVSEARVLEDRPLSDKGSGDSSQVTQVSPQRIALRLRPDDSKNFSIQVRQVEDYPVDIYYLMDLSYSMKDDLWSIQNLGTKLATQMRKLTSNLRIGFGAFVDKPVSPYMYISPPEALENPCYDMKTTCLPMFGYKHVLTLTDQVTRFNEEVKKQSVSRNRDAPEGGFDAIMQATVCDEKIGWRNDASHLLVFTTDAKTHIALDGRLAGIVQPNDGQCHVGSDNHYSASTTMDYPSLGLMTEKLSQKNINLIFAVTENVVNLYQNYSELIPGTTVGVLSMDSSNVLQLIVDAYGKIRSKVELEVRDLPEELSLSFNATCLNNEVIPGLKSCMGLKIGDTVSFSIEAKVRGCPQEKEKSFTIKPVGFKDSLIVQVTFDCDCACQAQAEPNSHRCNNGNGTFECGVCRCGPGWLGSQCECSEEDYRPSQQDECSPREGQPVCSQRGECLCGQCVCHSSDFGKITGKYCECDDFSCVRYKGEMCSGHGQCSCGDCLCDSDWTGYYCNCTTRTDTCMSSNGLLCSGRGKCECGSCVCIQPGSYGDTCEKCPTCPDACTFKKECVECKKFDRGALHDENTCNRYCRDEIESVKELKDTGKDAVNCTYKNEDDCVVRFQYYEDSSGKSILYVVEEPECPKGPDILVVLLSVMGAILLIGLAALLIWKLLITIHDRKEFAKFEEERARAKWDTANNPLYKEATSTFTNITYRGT
As to the kind of experiment: Inhibition of 125I-fibrinogen binding to the isolated, immobilized receptor (glycoprotein IIb/IIIa) (Test method 3). The settings on record: isolated receptor immobilized in microtitre plates. The protocol: The inhibition of the binding of fibrinogen to its receptor (glycoprotein IIb/IIIa) which is brought about by the compounds according to the invention is tested on the isolated receptor, which was isolated from human thrombocytes and immobilized in microtitre plates.

Assay [2] concerns gel-filtered human thrombocytes. Nature of the assay: Inhibition of the aggregation of gel-filtered human thrombocytes following stimulation with ADP or thrombin (Test method 1). The format is cell-based. The settings on record: 1 mg/ml fibrinogen, 37° C., GFP from 2-4 donors. The protocol:
As a functional test, measurement is made of the inhibition of the aggregation of gel-filtered human thrombocytes, following stimulation with ADP or thrombin, by the compounds according to the invention.
For this purpose, human thrombocytes were isolated from platelet-rich plasma (PRP) by gel filtration on Sepharose 2 B. The resulting suspension of gel-filtered platelets (GFP), which contained 3×10^8 platelets/ml, was activated in the presence of 1 mg/ml of fibrinogen either with 10 μM ADP or with 0.1 U/ml thrombin, and stirred in an aggregometer (PAP 4, Biodata, Hatboro, Penna., USA) at 37° C. and at 1000 revolutions per minute. The maximum increase in the translucency is taken as a measure of the aggregation. The test substances were added to the GFP at 37° C. and 2 min before activating with ADP or thrombin.

The mark [3] stands for this setting: read-out: Ki, inhibition of the binding of 125I-fibrinogen, ADP-stimulated.
The mark [4] stands for this setting: Homo sapiens, ADP-stimulated (10 μM ADP), read-out: IC50, inhibition of thrombocyte aggregation, ADP-stimulated.
Where [5] appears, read: Homo sapiens, Thrombin-stimulated (0.1 U/ml thrombin), read-out: IC50, inhibition of thrombocyte aggregation, Thrombin-stimulated.
Where [6] appears, read: Ki, inhibition of the binding of 125I-fibrinogen, ADP-stimulated.
Setting [7] is: ADP-stimulated (10 μM ADP), read-out: IC50, inhibition of thrombocyte aggregation, ADP-stimulated.
Setting [8] is: Thrombin-stimulated (0.1 U/ml thrombin), read-out: IC50, inhibition of thrombocyte aggregation, Thrombin-stimulated.

In the case of `CC1(c2ccc(C(=N)N)cc2)NC(=O)N(CC(=O)NC(CC(=O)O)c2ccccc2)C1=O` (racemic) [Example 13, (R,S)-3-(((R,S)-4-(4-(Aminoiminomethyl)phenyl)-4-methyl-2,5-dioxoimidazolidin-1-yl)acetylamino)-3-phenylpropionic acid hydrochloride], the Ki in assay [1] (setting [3]) came out at 0.748 nM. Further, the IC50 in assay [2] (setting [4]) and in assay [2] (setting [5]) was 200 nM in each case.

In the case of `CC1(c2ccc(C(=N)N)cc2)NC(=O)N(CC(=O)NC(CC(=O)O)c2cccc([N+](=O)[O-])c2)C1=O` (racemic) [Example 39, (R,S)-3-(((R,S)-4-(4-(Aminoiminomethyl)phenyl)-4-methyl-2,5-dioxoimidazolidin-1-yl)acetylamino)-3-(3-nitrophenyl)propionic acid], the Ki in assay [1] (setting [3]) was determined as 0.948 nM. Further, the figures for the IC50 in assay [2] (setting [4]) and in assay [2] (setting [5]) were 80 nM and 150 nM, respectively.

Turning to `CC1(c2ccc(C(=N)N)cc2)NC(=O)N(CC(=O)NC(CC(=O)O)c2ccc(C(=O)O)cc2)C1=O` (racemic) [Example 40, (R,S)-3-(((R,S)-4-(4-(Aminoiminomethyl)phenyl)-4-methyl-2,5-dioxoimidazolidin-1-yl)acetylamino)-3-(4-hydroxycarbonylphenyl)propionic acid], the Ki in assay [1] (setting [3]) is 1.99 nM. The half-inhibitory concentration (IC50) in assay [2] (setting [4]) stood at 400 nM; in assay [2] (setting [5]) it was 250 nM.

For `CC1(c2ccc(C(=N)N)cc2)NC(=O)N(CC(=O)NC(CC(=O)O)c2ccc(-c3ccccc3)cc2)C1=O` (racemic) [Example 46, (R,S)-3-(((R,S)-4-(4-Aminoiminomethyl)phenyl)-4-methyl-2,5-dioxoimidazolidin-1-yl)acetylamino)-3-(4-phenylphenyl)propionic acid], the Ki in assay [1] (setting [3]) is 1.23 nM. Also, the IC50 in assay [2] (setting [4]) and in assay [2] (setting [5]) was 100 nM each time.

`CC1(c2ccc(C(=N)N)cc2)NC(=O)N(CC(=O)N[C@@H](CC(=O)O)C(=O)N[C@H](C(=O)O)c2ccccc2)C1=O` (single isomer, unassigned) [Example 21, ((S or R)-4-(4-(Aminoiminomethyl)phenyl)-4-methyl-2,5-dioxoimidazolidin-1-yl)acetyl-L-aspartyl-L-phenylglycine] gave a Ki in assay [1] (setting [6]) of 1.9 nM. In addition, the IC50 is 800 nM in assay [2] (setting [7]) and 500 nM in assay [2] (setting [8]).

`CC1(c2ccc(C(=N)N)cc2)NC(=O)N(CC(=O)N[C@@H](CC(=O)O)C(=O)N[C@H](C(=O)O)c2ccccc2)C1=O` (single isomer, unassigned) [Example 22, ((R or S)-4-(4-(Aminoiminomethyl)phenyl)-4-methyl-2,5-dioxoimidazolidin-1-yl)acetyl-L-aspartyl-L-phenylglycine] registered a Ki in assay [1] (setting [6]) of 0.15 nM. Moreover, the IC50 worked out at 25 nM in assay [2] (setting [7]) and 50 nM in assay [2] (setting [8]).

In the case of `CC1(c2ccc(C(=N)N)cc2)NC(=O)N(CC(=O)NC[C@H](N)C(=O)O)C1=O` (stereo partly drawn) [Example 7, 2-Amino-3-(((R,S)-4-(4-(aminoiminomethyl)-phenyl)-4-methyl-2,5-dioxoimidazolidin-1-yl)acetylamino)propionic acid hydrochloride], the IC50 in assay [2] (setting [4]) and in assay [2] (setting [5]) was 300 nM each time.

With `CC1(c2ccc(CN)cc2)NC(=O)N(CC(=O)N[C@@H](CC(=O)O)C(=O)N[C@H](C(=O)O)c2ccccc2)C1=O` (stereo partly drawn) [Example 8, ((R,S)-4-(4-(Aminomethyl)phenyl)-4-methyl-2,5-dioxoimidazolidin-1-yl)acetyl-L-aspartyl-L-phenylglycine], the IC50 turned out to be 150 nM in assay [2] (setting [4]) and 100 nM in assay [2] (setting [5]).

For `N=C(N)c1ccc(CC2NC(=O)N(CC(=O)NC[C@H](NC(=O)OCc3ccccc3)C(=O)O)C2=O)cc1` (stereo partly drawn) [Example 9, 3-(((R,S)-4-(4-(Aminoiminomethyl)benzyl)-2,5-dioxoimidazolidin-1-yl)acetylamino)-2-benzyloxycarbonylaminopropionic acid], the IC50 in assay [2] (setting [4]) is 1000 nM; in assay [2] (setting [5]), 500 nM.

For the compound `CC1(c2ccc(NC(=N)N)cc2)NC(=O)N(CC(=O)N[C@@H](CC(=O)O)C(=O)N[C@H](C(=O)O)c2ccccc2)C1=O` (stereo partly drawn) [Example 10, ((R,S)-4-(4-Guanidinophenyl)-4-methyl-2,5-dioxoimidazolidin-1-yl)acetyl-L-aspartyl-L-phenylglycine], the values for the IC50 in assay [2] (setting [4]) and in assay [2] (setting [5]) were 150 nM and 60 nM, respectively.

With `CC(C)(C)OC(=O)NN(CC(=O)O)C(=O)CN1C(=O)NC(=Cc2ccc(C(=N)N)cc2)C1=O` [Example 20], the IC50 in assay [2] (setting [4]) was 2000 nM; in assay [2] (setting [5]), 1000 nM.

As for `COC(=O)[C@@H](NC(=O)[C@H](CC(=O)O)NC(=O)CN1C(=O)NC(C)(c2ccc(C(=N)N)cc2)C1=O)c1ccccc1` (stereo partly drawn) [Example 23, ((R,S)-4-(4-(Aminoiminomethyl)phenyl)-4-methyl-2,5-dioxoimidazolidin-1-yl)acetyl-L-aspartyl-L-phenylglycine methyl ester], the IC50 was determined as 30 nM in assay [2] (setting [4]) and 50 nM in assay [2] (setting [5]).

Take `CCN1C(=O)N(CC(=O)N[C@@H](CC(=O)O)C(=O)N[C@H](C(=O)O)c2ccccc2)C(=O)C1(C)c1ccc(C(=N)N)cc1` (stereo partly drawn) [Example 24, ((R,S)-4-(4-(Aminoiminomethyl)phenyl)-3-ethyl-4-methyl-2,5-dioxoimidazolidin-1-yl)acetyl-L-aspartyl-L-phenylglycine]: the IC50 came out at 55 nM in assay [2] (setting [7]) and 80 nM in assay [2] (setting [8]).

For `CC1(c2ccc(C(=N)N)cc2)C(=O)N(CC(=O)N[C@@H](CC(=O)O)C(=O)N[C@H](C(=O)O)c2ccccc2)C(=O)N1Cc1ccccc1` (stereo partly shown) [Example 25], the Ki in assay [1] (setting [3]) was 0.175 nM. The IC50 in assay [2] (setting [4]) stood at 30 nM; in assay [2] (setting [5]) it was 50 nM.

With `N=C(N)c1ccc(C2(C3CC3)NC(=O)N(CC(=O)N[C@@H](CC(=O)O)C(=O)N[C@H](C(=O)O)c3ccccc3)C2=O)cc1` (stereo partly drawn) [Example 26, ((R,S)-4-(4-(Aminoiminomethyl)phenyl)-4-cyclopropyl-2,5-dioxoimidazolidin-1-yl)acetyl-L-aspartyl-L-phenylglycine], the Ki in assay [1] (setting [3]) was found to be 0.117 nM. In addition, the IC50 in assay [2] (setting [4]) is 20 nM; in assay [2] (setting [5]) it was 40 nM.

In the case of `CCC1(c2ccc(C(=N)N)cc2)NC(=O)N(CC(=O)N[C@@H](CC(=O)O)C(=O)N[C@H](C(=O)O)c2ccccc2)C1=O` (stereo partly drawn) [Example 27, ((R,S)-4-(4-(Aminoiminomethyl)phenyl)-4-ethyl-2,5-dioxoimidazolidin-1-yl)acetyl-L-aspartyl-L-phenylglycine], in assay [1] (setting [3]), the Ki came to 0.107 nM. Moreover, the IC50 was found to be 25 nM in assay [2] (setting [4]) and 40 nM in assay [2] (setting [5]).

In the case of `N=C(N)c1ccc(C2(Cc3ccccc3)NC(=O)N(CC(=O)N[C@@H](CC(=O)O)C(=O)N[C@H](C(=O)O)c3ccccc3)C2=O)cc1` (stereo partly drawn) [Example 28, ((R,S)-4-(4-(Aminoiminomethyl)phenyl)-4-benyl-2,5-dioxoimidazolidin-1-yl)acetyl-L-aspartyl-L-phenylglycine], the Ki in assay [1] (setting [3]) came out at 0.078 nM. The results for the IC50 in assay [2] (setting [4]) and in assay [2] (setting [5]) were 25 nM and 40 nM, respectively.

On to `CC(C)(C)C1(c2ccc(C(=N)N)cc2)NC(=O)N(CC(=O)N[C@@H](CC(=O)O)C(=O)N[C@H](C(=O)O)c2ccccc2)C1=O` (stereo partly shown) [Example 29], for which the IC50 in assay [2] (setting [4]) is 50 nM; in assay [2] (setting [5]), 40 nM.

As to `CC1(c2ccc(C(=N)N)cc2)NC(=O)N(CC(=O)N[C@@H](CC(=O)O)C(=O)NC23CC4CC(CC(C4)C2)C3)C1=O` (stereo partly drawn) [Example 68, (2-((R,S)-4-(4-(aminoiminomethyl)phenyl)-4-methyl-2,5-dioxoimidazolidin-1-yl)acetyl)-L-aspartyl-1-adamantylamide], the IC50 in assay [2] (setting [4]) is 50 nM; in assay [2] (setting [5]), 45 nM.

Turning to `CC1(c2ccc(C(=N)N)cc2)NC(=O)N(CC(=O)N[C@@H](CC(=O)O)C(=O)NC2C3CC4CC(C3)CC2C4)C1=O` (stereo partly drawn) [Example 69, (2-((R,S)-4-(4-(Aminoiminomethyl)phenyl)-4-methyl-2,5-dioxoimidazolidin-1-yl)acetyl)-L-aspartyl-2-adamantylamide], the IC50 in assay [2] (setting [4]) was found to be 25 nM; in assay [2] (setting [5]), 45 nM.

For the compound `CC1(c2ccc(C(=N)N)cc2)NC(=O)N(CC(=O)N[C@@H](CC(=O)O)C(=O)NCC23CC4CC(CC(C4)C2)C3)C1=O` (stereo partly drawn) [Example 70, (2-((R,S)-4-(4-(Aminoiminomethyl)phenyl)-4-methyl-2,5-dioxoimidazolidin-1-yl)acetyl)-L-aspartyl-(1-adamantylmethyl)amide], the IC50 in assay [2] (setting [4]) is 65 nM; in assay [2] (setting [5]), 70 nM.

In general, Ki refers to a dissociation constant, usually derived from enzyme kinetics or from competition with a known ligand. Broadly, the IC50 is the midpoint of a concentration-inhibition curve.
